Experiments:
[1] = Inhibition of HIV1 envelope gp41-mediated fusion of CHO cells expressing HIV1 envelope with calcein-AM labeled SupT1 cells by fluorescence assay; type: cell-based, Human immunodeficiency virus 1
[2] = Binding affinity to HIV1 envelope gp41 by NMR study; set-up: species or system Human immunodeficiency virus 1

EC50 [1]	Kd [2]	Compound
9 µM	–	O=C(O)c1cc(C(=O)O)c(C(=O)N(Cc2ccc(-c3ccccc3Cl)cc2)[C@H]2CCCc3ccccc32)cc1C(=O)O
14 µM	789 µM	COc1ccc(-c2ccc(CN(C(=O)c3cc(C(=O)O)c(C(=O)O)cc3C(=O)O)[C@H]3CCCc4ccccc43)cc2)cc1
4 µM	–	O=C(O)c1cc(C(=O)O)c(C(=O)N(Cc2ccc(-c3cc(Cl)cc(Cl)c3)cc2)[C@H]2CCCc3ccccc32)cc1C(=O)O
13 µM	–	O=C(O)c1cc(C(=O)O)c(C(=O)N(Cc2cccc(Oc3ccccc3)c2)[C@H]2CCCc3ccccc32)cc1C(=O)O [A-317491]
26 µM	–	O=C(O)c1cc(C(=O)O)c(C(=O)N(Cc2ccc3c(c2)Cc2ccccc2-3)[C@H]2CCCc3ccccc32)cc1C(=O)O
> 250 µM	–	O=C(O)c1cc(C(=O)O)c(C(=O)N(Cc2cccc(OC3CCOCC3)c2)[C@H]2CCCc3ccccc32)cc1C(=O)O

Continued, compound first:

Compound	EC50 [1]	Kd [2]
O=C(O)c1ccccc1C(=O)N(Cc1ccc(-c2ccccc2)cc1)[C@H]1CCCc2ccccc21	16 µM	–
O=C(O)c1ccccc1C(=O)N(Cc1cccc(Oc2ccccc2)c1)Cc1ccccn1	–	> 5000 µM
O=C(O)c1cc(C(=O)O)cc(C(=O)N(Cc2cccc(Oc3ccccc3)c2)[C@H]2CCCc3ccccc32)c1	41 µM	–
O=C(O)c1ccc(C(=O)N(Cc2cccc(Oc3ccccc3)c2)[C@H]2CCCc3ccccc32)cc1C(=O)O	34 µM	–
CC(=O)N[C@H](CCCCN)C(=O)N[C@H](CCCCN)C(=O)NCC(=O)N[C@H](C)C(=O)N[C@@H]1CSSC[C@H](C(=O)N[C@H](C)C(=O)N[C@H](C)C(N)=O)NC(=O)[C@@H](CC(C)C)NC(=O)[C@@H](Cc2c[nH]c3ccccc23)NC(=O)[C@@H](C)NC(=O)[C@@H](Cc2c[nH]c3ccccc23)NC(=O)[C@@H](CCC(=O)O)NC(=O)[C@@H](Cc2c[nH]c3ccccc23)NC(=O)CNC(=O)[C@@H](CC(C)C)NC(=O)[C@@H](CC(C)C)NC(=O)[C@@H](CCC(=O)O)NC1=O	19 µM	–
O=C(O)c1ccccc1C(=O)N(Cc1cccc(Oc2ccccc2)c1)CC12CC3CC(CC(C3)C1)C2	7 µM	–
O=C(O)c1ccccc1C(=O)N(Cc1cccc(Oc2ccc(Cl)cc2)c1)[C@H]1CCCc2ccccc21	3 µM	–

Reference: ChEMBL document CHEMBL1153218, “Non-peptide entry inhibitors of HIV-1 that target the gp41 coiled coil pocket” (Bioorg Med Chem Lett, 2010)
